Like-named read-outs stand apart in the source and are kept apart here.
Legend:
HCV GT1a(H77) replicon = assay: HCV replicon luciferase reporter assay, genotype 1a; format: cell-based, HCV genotype 1a; settings: Hepatitis C virus, 72 h, HUH-7 cells, Renilla luciferase, 3 days incubation
Excerpt: A stable HCV GT1a(H77) replicon luciferase reporter cell line (Yanagi M, Purcell RH, Emerson S U, et al. Transcripts from a single full-length cDNA clone of hepatitis C virus are infectious when directly transfected into the liver of a chimpanzee. Proc Natl Acad Sci USA 1997; 94(16):8738-8743) was generated as described previously for the genotype 1b(Con1) replicon luciferase cell line. The replicon construct was modified by introducing mutations into the genes encoding the NS3 helicase domain (proline replaced by leucine at position 1496) and NS5A (serine to isoleucine at position 2204) to improve replication in cell culture.
(§1) HCV replicon luciferase assays were developed to monitor the inhibitory effects of compounds described in the disclosure on HCV genotypes 1a and 1b viral replication. HUH-7 cells, constitutively expressing the HCV replicon, were grown in Dulbecco's Modified Eagle Media (DMEM) (Gibco-BRL) containing 10% Fetal calf serum (FCS) (Sigma) and 1 mg/mL G418 (Gibco-BRL). Compounds were serially diluted 3 folds in DMSO for a twenty-point titration and subsequently transferred to sterile 384-well tissue-culture treated plates (Corning cat #3571). The plates were then seeded with 50 μL of cells at a density of 3.0×10^3 cells/well in DMEM containing 4% FCS (final DMSO concentration at 0.5%). After 3 days incubation at 37° C., cells were analyzed for Renilla Luciferase activity using the EnduRen as substrate (Promega cat #E6485). The EnduRen substrate was diluted in DMEM and then added to the plates to a final concentration of 7.5 μM. The plates were incubated for 2 hrs at 37° C. and then read immediately for 30 seconds with Viewlux Imager (PerkinElmer) using a luminescence program. To assess cytotoxicity of compounds, CC50 values were generated by multiplexing the EnduRen-containing plates with Cell Titer-Blue (Promega, cat #G8082). Cell-Titer Blue (3 μL) was added to each well and incubated for 8 hrs at 37° C. The fluorescence signal from each well was read, with an excitation wavelength at 525/10 nm and an emission wavelength of 598/10 nm, using the Viewlux Imager.
(§2) The EC50 values for compounds were calculated by using a four-parameter logistic equation: y=A+[…])/(1+((C/x)^D))), where A and B denotes minimal and maximal % inhibition, respectively, C is the EC50, D is the hill slope and x represents compound concentration.

HCV GT1b(Con1) replicon = assay: HCV replicon luciferase reporter assay, genotype 1b; format: cell-based, HCV genotype 1b; settings: Hepatitis C virus, 72 h, HUH-7 cells, Renilla luciferase, 3 days incubation
Excerpt: An HCV GT1b(Con1) replicon cell system was established as described by Lohmann V, Korner F, Koch J, Herian U, Theilmann L, Bartenschlager R., Science 285(5424):110-3 (1999) and modified to introduce a luciferase reporter (Krieger N, Lohmann V, and Bartenschlager R, J. Virol. 75(10):4614-4624 (2001)). cDNA encoding a humanized form of the Renilla luciferase gene, and a linker sequence fused directly to the 3′-end of the luciferase gene were introduced into the replicon construct using an Asc1 restriction site located in core, directly upstream of the neomycin marker gene. The adaptive mutation at position 1179 (serine to isoleucine) was also introduced (Blight K J, Kolykhalov, A A, Rice, C M, Science 290(5498):1972-1974). A stable cell line constitutively expressing this HCV replicon construct was generated by first linearizing plasmid DNAs with ScaI. RNA transcripts were synthesized in vitro using the T7 MegaScript transcription kit (Ambion, Austin, Tex.) according to manufacturer's directions. In vitro transcripts of the cDNA were transfected into the human hepatoma cell line, HUH-7. […] Resulting cell lines were characterized for positive and negative strand RNA production and protein production over time.
as §1, §2

SMILES	EC50 (HCV GT1a(H77) replicon; read-out: LE_1a (EC50))	EC50 (HCV GT1a(H77) replicon; read-out: LE_1a (EC50, range))	EC50 (HCV GT1b(Con1) replicon; read-out: LE_1b (EC50))	EC50 (HCV GT1b(Con1) replicon; read-out: LE_1b (EC50, range))
CC(C)Oc1ccc(-c2cc(O[C@@H]3C[C@H]4C(=O)N[C@]5(C(=O)NS(=O)(=O)C6(C)CC6)C[C@H]5/C=C\CC[C@H](C)C[C@@H](C)[C@H](NC(=O)OC(C)(C)C(F)(F)F)C(=O)N4C3)cc(-c3cnccn3)n2)cc1 [Compound 1002, 1,1,1-trifluoro-2-methylpropan-2-yl ((2R,6S,7R,9S,13aS,14aR,16aS,Z)-2-((2-(4-isopropoxyphenyl)-6-(pyrazin-2-yl)pyridin-4-yl)oxy)-7,9-dimethyl-14a-(((1-methylcyclopropyl)sulfonyl)carbamoyl)-5,16-dioxo-1,2,3,5,6,7,8,9,10,11,13a,14,14a,15,16,16a-hexadecahydrocyclopropa[e]pyrrolo[1,2-a][1,4]diazacyclopentadecin-6-yl)carbamate]	59 nM	35 to 359 nM	11.6 nM	5.01 to 35 nM
Cc1cc(O[C@@H]2C[C@H]3C(=O)N[C@]4(C(=O)NS(=O)(=O)C5(C)CC5)C[C@H]4/C=C\CC[C@@H](C)C[C@@H](C)[C@H](NC(=O)OC(C)(C)C(F)(F)F)C(=O)N3C2)cc(-c2cncs2)n1 [Compound 1015, 1,1,1-trifluoro-2-methylpropan-2-yl ((2R,6S,7R,9R,13aS,14aR,16aS,Z)-7,9-dimethyl-2-((2-methyl-6-(thiazol-5-yl)pyridin-4-yl)oxy)-14a-(((1-methylcyclopropyl)sulfonyl)carbamoyl)-5,16-dioxo-1,2,3,5,6,7,8,9,10,11,13a,14,14a,15,16,16a-hexadecahydrocyclopropa[e]pyrrolo[1,2-a][1,4]diazacyclopentadecin-6-yl)carbamate]		5.01 to 35 nM		5.01 to 35 nM
CC(C)Oc1ccc(-c2cc(Cl)cc(O[C@@H]3C[C@H]4C(=O)N[C@]5(C(=O)NS(=O)(=O)C6(C)CC6)C[C@H]5/C=C\CC[C@H](C)C[C@@H](C)[C@H](NC(=O)OC(C)(C)C)C(=O)N4C3)n2)cc1 [Compound 1030, tert-butyl ((2R,6S,7R,9S,13aS,14aR,16aS,Z)-2-((4-chloro-6-(4-isopropoxyphenyl)pyridin-2-yl)oxy)-7,9-dimethyl-14a-(((1-methylcyclopropyl)sulfonyl)carbamoyl)-5,16-dioxo-1,2,3,5,6,7,8,9,10,11,13a,14,14a,15,16,16a-hexadecahydrocyclopropa[e]pyrrolo[1,2-a][1,4]diazacyclopentadecin-6-yl)carbamate]		35 to 359 nM		35 to 359 nM
CC(C)Oc1ccc(-c2cc(O[C@@H]3C[C@H]4C(=O)N[C@]5(C(=O)NS(=O)(=O)C6(C)CC6)C[C@H]5/C=C\CC[C@@H](C)C[C@@H](C)[C@H](NC(=O)OC5(C(F)(F)F)CCCOC5)C(=O)N4C3)cc(-c3ncccn3)n2)cc1 (stereo partly drawn) [Compound 1048, 3-(trifluoromethyl)tetrahydro-2H-pyran-3-yl ((2R,6S,7R,9R,13aS,14aR,16aS,Z)-2-((2-(4-isopropoxyphenyl)-6-(pyrimidin-2-yl)pyridin-4-yl)oxy)-7,9-dimethyl-14a-(((1-methylcyclopropyl)sulfonyl)carbamoyl)-5,16-dioxo-1,2,3,5,6,7,8,9,10,11,13a,14,14a,15,16,16a-hexadecahydrocyclopropa[e]pyrrolo[1,2-a][1,4]diazacyclopentadecin-6-yl)carbamate]		1.01 to 5 nM		1.01 to 5 nM
Cc1cnc(-c2cc(O[C@@H]3C[C@H]4C(=O)N[C@]5(C(=O)NS(=O)(=O)C6(C)CC6)C[C@H]5/C=C\CC[C@@H](C)C[C@@H](C)[C@H](NC(=O)OC(C)(C)C(F)(F)F)C(=O)N4C3)ccn2)s1 [Compound 1043, 1,1,1-trifluoro-2-methylpropan-2-yl ((2R,6S,7R,9R,13aS,14aR,16aS,Z)-7,9-dimethyl-14a-(((1-methylcyclopropyl)sulfonyl)carbamoyl)-2-((2-(5-methylthiazol-2-yl)pyridin-4-yl)oxy)-5,16-dioxo-1,2,3,5,6,7,8,9,10,11,13a,14,14a,15,16,16a-hexadecahydrocyclopropa[e]pyrrolo[1,2-a][1,4]diazacyclopentadecin-6-yl)carbamate]		0.51 to 1 nM		0.1 to 0.5 nM
